Where a SMILES comes first, the peptide text is derived from it. Bridges are numbered along the chain shown (N, C = ends). [ ]: non-standard residue; d: D form. The star is where a group is joined. S5 = C=CCCC[C@](C)(N)C(=O)O; Nle = CCCC[C@H](N)C(=O)O; Aib = CC(C)(N)C(=O)O; Propionyl = CCC(=O)*
Assays:
[1] = Figure 5
Excerpt: Table printed on a drawing sheet, Figure 5
The patent's description of the figure: FIG. 5 illustrates the PK profile in rat and monkey for a peptidomimetic macrocycle of the invention.
First reader's note: The first row combines the substance name (SP2) with the conditions dose, route and species in one cell.

[2] = Figure 2; set-up: AUCall: concentration or dose not given beside the values; conditions: for C0 / half-life / MRT: Sprague-Dawley, rat, plasma, iv; for MRT: read-out: MRTinf_obs
Procedure: Table printed on a drawing sheet, Figure 2
Footnotes: 2 mg/mL iv bolus in Sprague-Dawley rats (10 mg/kg) / * 0.6 mg/mL iv bolus in Sprague-Dawley rats (3 mg/kg)
The patent's description of the figure: FIG. 2 lists the in vivo half-lives of peptidomimetic macrocycles of the invention. Half-lives were measured in Sprague Dawley rats after one intravenous bolus injection at 0.6 mg/mL or 2 mg/mL of each unlabeled peptidomimetic macrocycle at a 3 mg/kg or 10 mg/kg dose, respectively. Three animals were used per compound and concentrations were determined by mass-spectrometric analysis of blood levels (plasma).
First reader's note: An asterisk before the peptide name marks dosing at 3 mg/kg (0.6 mg/mL) instead of 10 mg/kg (2 mg/mL).

Structure (SMILES) | AUC all [1] [µg·h/mL] | Cmax [1] [µg/mL] | MRTinf [1] [h] | T ½ [1] [h] | AUCall [2] [µg·h/mL] | Cl_obs [2] [mL/min/kg] | C0 [2] [µg/mL] | half-life [2] [h] | MRT [2] [h]
CC[C@H](C)[C@H](NC(C)=O)C(=O)N[C@@H](Cc1c[nH]c2ccccc12)C(=O)N[C@H](C(=O)N[C@@H](C)C(=O)N[C@@H](CCC(N)=O)C(=O)N[C@@H](CCC(=O)O)C(=O)N[C@@H](CC(C)C)C(=O)N[C@@H](CCCNC(=N)N)C(=O)N[C@@]1(C)CCCC=CCCC[C@@](C)(C(=O)N[C@@H](Cc2ccccc2)C(=O)N[C@@H](CC(N)=O)C(=O)N[C@@H](C)C(=O)N[C@@H](Cc2ccc(O)cc2)C(=O)N[C@@H](Cc2ccc(O)cc2)C(=O)N[C@@H](C)C(=O)N[C@@H](CCCNC(=N)N)C(=O)N[C@@H](CCCNC(=N)N)C(N)=O)NC(=O)[C@H](CC(=O)O)NC(=O)CNC(=O)[C@H]([C@@H](C)CC)NC1=O)[C@@H](C)CC (single isomer, unassigned) [SP2 1 mg/kg IV monkey] | 27.275 | 19.049 | 1.8 | 2.2 | – | – | – | – | –
CC[C@H](C)[C@H](NC(C)=O)C(=O)N[C@@H](Cc1c[nH]c2ccccc12)C(=O)N[C@H](C(=O)N[C@@H](C)C(=O)N[C@@H](CCC(N)=O)C(=O)N[C@@H](CCC(=O)O)C(=O)N[C@@H](CC(C)C)C(=O)N[C@@H](CCCNC(=N)N)C(=O)N[C@@]1(C)CCCC=CCCC[C@@](C)(C(=O)N[C@@H](Cc2ccccc2)C(=O)N[C@@H](CC(N)=O)C(=O)N[C@@H](C)C(=O)N[C@@H](Cc2ccc(O)cc2)C(=O)N[C@@H](Cc2ccc(O)cc2)C(=O)N[C@@H](C)C(=O)N[C@@H](CCCNC(=N)N)C(=O)N[C@@H](CCCNC(=N)N)C(N)=O)NC(=O)[C@H](CC(=O)O)NC(=O)CNC(=O)[C@H]([C@@H](C)CC)NC1=O)[C@@H](C)CC (single isomer, unassigned) [SP2 3 mg/kg IV monkey] | 110.669 | 51.54 | 1.9 | 2 | – | – | – | – | –
CC[C@H](C)[C@H](NC(C)=O)C(=O)N[C@@H](Cc1c[nH]c2ccccc12)C(=O)N[C@H](C(=O)N[C@@H](C)C(=O)N[C@@H](CCC(N)=O)C(=O)N[C@@H](CCC(=O)O)C(=O)N[C@@H](CC(C)C)C(=O)N[C@@H](CCCNC(=N)N)C(=O)N[C@@]1(C)CCCC=CCCC[C@@](C)(C(=O)N[C@@H](Cc2ccccc2)C(=O)N[C@@H](CC(N)=O)C(=O)N[C@@H](C)C(=O)N[C@@H](Cc2ccc(O)cc2)C(=O)N[C@@H](Cc2ccc(O)cc2)C(=O)N[C@@H](C)C(=O)N[C@@H](CCCNC(=N)N)C(=O)N[C@@H](CCCNC(=N)N)C(N)=O)NC(=O)[C@H](CC(=O)O)NC(=O)CNC(=O)[C@H]([C@@H](C)CC)NC1=O)[C@@H](C)CC (single isomer, unassigned) [SP2 10 mg/kg IV monkey] | 427.932 | 180.01 | 2.2 | 1.9 | – | – | – | – | –
CC[C@H](C)[C@H](NC(C)=O)C(=O)N[C@@H](Cc1c[nH]c2ccccc12)C(=O)N[C@H](C(=O)N[C@@H](C)C(=O)N[C@@H](CCC(N)=O)C(=O)N[C@@H](CCC(=O)O)C(=O)N[C@@H](CC(C)C)C(=O)N[C@@H](CCCNC(=N)N)C(=O)N[C@@]1(C)CCCC=CCCC[C@@](C)(C(=O)N[C@@H](Cc2ccccc2)C(=O)N[C@@H](CC(N)=O)C(=O)N[C@@H](C)C(=O)N[C@@H](Cc2ccc(O)cc2)C(=O)N[C@@H](Cc2ccc(O)cc2)C(=O)N[C@@H](C)C(=O)N[C@@H](CCCNC(=N)N)C(=O)N[C@@H](CCCNC(=N)N)C(N)=O)NC(=O)[C@H](CC(=O)O)NC(=O)CNC(=O)[C@H]([C@@H](C)CC)NC1=O)[C@@H](C)CC (single isomer, unassigned) [SP2 10 mg/kg IV rat] | 170.685 | 70.325 | 3.1 | 5.7 | – | – | – | – | –
CC[C@H](C)[C@H](NC(C)=O)C(=O)N[C@@H](Cc1c[nH]c2ccccc12)C(=O)N[C@H](C(=O)N[C@@H](C)C(=O)N[C@@H](CCC(N)=O)C(=O)N[C@@H](CCC(=O)O)C(=O)N[C@@H](CC(C)C)C(=O)N[C@@H](CCCNC(=N)N)C(=O)N[C@@]1(C)CCCC=CCCC[C@@](C)(C(=O)N[C@@H](Cc2ccccc2)C(=O)N[C@@H](CC(N)=O)C(=O)N[C@@H](C)C(=O)N[C@@H](Cc2ccc(O)cc2)C(=O)N[C@@H](Cc2ccc(O)cc2)C(=O)N[C@@H](C)C(=O)N[C@@H](CCCNC(=N)N)C(=O)N[C@@H](CCCNC(=N)N)C(N)=O)NC(=O)[C@H](CC(=O)O)NC(=O)CNC(=O)[C@H]([C@@H](C)CC)NC1=O)[C@@H](C)CC (single isomer, unassigned) [SP2] | – | – | – | – | 170.685 | 1.36 | 70.3 | 5.7 | 3.1
CCCC[C@H](NC(=O)[C@]1(C)CCCC=CCCC[C@](C)(NC(=O)[C@H](C)NC(=O)[C@H](CC(C)C)NC(=O)[C@]2(C)CCCC=CCCCCC(=O)N[C@@H]([C@@H](C)CC)C(=O)N[C@@H](C)C(=O)N[C@@H](CCCNC(=N)N)C(=O)N2)C(=O)N[C@@H](C(C)C)C(=O)NCC(=O)N[C@@H](CC(=O)O)C(=O)N1)C(=O)N[C@@H](CC(=O)O)C(=O)N[C@@H](CCCNC(=N)N)C(=O)N[C@@H](CO)C(=O)N[C@H](C(N)=O)[C@@H](C)CC [*SP12] | – | – | – | – | 69.035 | 0.503 | 6.4 | 5.9 | 9.2
CC[C@H](C)[C@H](NC(C)=O)C(=O)N[C@@H](Cc1c[nH]c2ccccc12)C(=O)N[C@H](C(=O)N[C@@H](C)C(=O)N[C@@H](CCC(N)=O)C(=O)N[C@@H](CCC(N)=O)C(=O)N[C@@H](CC(C)C)C(=O)N[C@@H](CCCNC(=N)N)C(=O)N[C@@]1(C)CCCC=CCCC[C@@](C)(C(=O)N[C@@H](Cc2ccccc2)C(=O)N[C@@H](CC(N)=O)C(=O)N[C@@H](C)C(=O)N[C@@H](Cc2ccc(O)cc2)C(=O)N[C@@H](Cc2ccc(O)cc2)C(=O)N[C@@H](C)C(=O)N[C@@H](CCCNC(=N)N)C(=O)N[C@@H](CCCNC(=N)N)C(N)=O)NC(=O)[C@H](CC(=O)O)NC(=O)CNC(=O)[C@H]([C@@H](C)CC)NC1=O)[C@@H](C)CC [SP3] | – | – | – | – | 156.183 | 1.1 | 186 | 11.1 | 4.3
CCCC[C@H](NC(=O)[C@]1(C)CCCC=CCCC[C@](C)(NC(=O)[C@H](C)NC(=O)[C@H](CC(C)C)NC(=O)[C@H](Cc2c[nH]cn2)NC(=O)[C@H](CCCNC(=N)N)NC(=O)[C@H](C)NC(=O)[C@@H](NC(=O)[C@H](CC(N)=O)NC(=O)[C@H](CCCNC(=N)N)NC(=O)CC)[C@@H](C)CC)C(=O)N[C@@H](C(C)C)C(=O)NC(C)(C)C(=O)N[C@@H](CC(=O)O)C(=O)N1)C(=O)N[C@@H](CC(=O)O)C(=O)N[C@@H](CCCNC(=N)N)C(=O)N[C@@H](CO)C(=O)N[C@H](C(N)=O)[C@@H](C)CC [SP5] (Propionyl-RNIARHLA[S5]V[Aib]D[S5][Nle]DRSI-NH2; staple 9-13) | – | – | – | – | 127.629 | 1.52 | 271 | 2.4 | 0.6
CC[C@H](C)[C@H](NC(=O)[C@H](CO)NC(=O)[C@H](CCCNC(=N)N)NC(=O)[C@H](C)NC(=O)[C@H](C)NC(=O)[C@]1(C)CCCC=CCCC[C@](C)(NC(=O)[C@H](C)NC(=O)[C@H](CC(C)C)NC(=O)[C@H](Cc2c[nH]cn2)NC(=O)[C@H](CCCNC(=N)N)NC(=O)[C@H](C)NC(=O)[C@@H](NC(=O)[C@H](CC(N)=O)NC(=O)[C@H](CCCNC(=N)N)NC(=O)[C@@H](NC(=O)[C@@H](NC(=O)[C@H](CC(=O)O)NC(C)=O)[C@@H](C)CC)[C@@H](C)CC)[C@@H](C)CC)C(=O)N[C@@H](C(C)C)C(=O)NC(C)(C)C(=O)N[C@@H](CC(=O)O)C(=O)N1)C(N)=O [SP7] (Ac-DIIRNIARHLA[S5]V[Aib]D[S5]AARSI-NH2; staple 12-16) | – | – | – | – | 402.899 | 0.398 | 158 | 3.9 | 3.1
CCC(=O)N[C@@H](CCCNC(=N)N)C(=O)N[C@@H](CC(N)=O)C(=O)N[C@H](C(=O)N[C@@H](C)C(=O)N[C@@H](CCCNC(=N)N)C(=O)N[C@@H](Cc1c[nH]cn1)C(=O)N[C@@H](CC(C)C)C(=O)N[C@@H](C)C(=O)N[C@@]1(C)CCCC=CCCC[C@@](C)(C(=O)N[C@@H](Cc2ccccc2)C(=O)N[C@@H](C)C(=O)N[C@@H](CCCNC(=N)N)C(=O)N[C@@H](CO)C(=O)N[C@H](C(N)=O)[C@@H](C)CC)NC(=O)[C@H](CC(=O)O)NC(=O)C(C)(C)NC(=O)[C@H](C(C)C)NC1=O)[C@@H](C)CC [SP8] (Propionyl-RNIARHLA[S5]V[Aib]D[S5]FARSI-NH2; staple 9-13) | – | – | – | – | 73.751 | 1.997 | 148 | 19.9 | 2.3
CCCC[C@H](NC(=O)[C@]1(C)CCCC=CCCC[C@](C)(NC(=O)[C@H](C)NC(=O)[C@H](CC(C)C)NC(=O)[C@H](Cc2c[nH]cn2)NC(=O)[C@H](CCCNC(=N)N)NC(=O)[C@H](C)NC(=O)[C@@H](NC(=O)[C@H](CC(N)=O)NC(=O)[C@H](CCCNC(=N)N)NC(=O)CC)[C@@H](C)CC)C(=O)N[C@@H](C(C)C)C(=O)NCC(=O)N[C@@H](CC(=O)O)C(=O)N1)C(=O)NC(C)(C)C(=O)N[C@@H](CCCNC(=N)N)C(=O)N[C@@H](CO)C(=O)N[C@H](C(N)=O)[C@@H](C)CC [SP10] (Propionyl-RNIARHLA[S5]VGD[S5][Nle][Aib]RSI-NH2; staple 9-13) | – | – | – | – | 35.591 | 3.605 | 51.7 | 21.8 | 3
